Source: paper PMC10044725, “Antioxidant, Anti-Inflammatory and Anti-Diabetic Activities of Tectona grandis Methanolic Extracts, Fractions, and Isolated Compounds” (Antioxidants, 2023)
Marks after values point to notes of the source that are not given here.

Experiments:
α-glucosidase = assay: α-Glucosidase inhibition assay (pNPG); format: biochemical; details: for Inhibitory Rate (%): at a concentration of 50 µM; for IC50: compounds
Description: The inhibitory effect on α-glucosidase was measured according to the previous report method with slight modifications. The 20 mM sample dissolved in DMSO was diluted to 50 μM in PBS, 10 μL sample was mixed with 50 μL of 0.1 μ/mL α-glucosidase solution in 0.1 M phosphate buffer (pH 6.5) in a 96-well microplate and 10 μL PBS was used as a blank control. The mixture was incubated at 37 °C for 10 min before adding 40 µL of 5 mM 4-nitrophenyl-α-D-glucopyranoside to each well. After 30 min of incubation at 37 °C, the reaction was terminated by adding 50 μL of 0.1 M Na2CO3 to this mixture. The released 4-nitrophenol absorbance measurements were carried out using a microplate reader (SpectraMax190, USA) at 405 nm.

[1] = DPPH free radical scavenging assay; details: half scavenging concentration; for EC50: isolated compounds, read-out: DPPH Assay SC50
Description: The DPPH free radical scavenging activities of T. grandis methanolic extract, different fractions and its compounds were conducted according to Dr. Yang et al.. […] The absorbance was measured using a microplate reader at 517 nm, and ascorbic acid was used as a positive control. The DPPH scavenging activity was calculated according to the following formula: Scavenging activity (%) = [1 − (A1 − A2)/(A3 − A4)] × 100% (1) where A1 is the OD value of the tested samples, A2 is the OD value of the sample control, A3 is the OD value of the negative control and A4 is the OD value of the blank control. The analysis was performed in triplicates and the results were described as SC50 values.

[2] = ABTS radical cation scavenging assay (Trolox equivalent)
Description: The ABTS radical cation (ABTS•+) scavenging activities were conducted in accordance with the instructions for the ABTS kit. The total antioxidant activity values were estimated using the Trolox equivalent antioxidant capacity test. The detection concentration of methanolic extract and different fractions was 80 μg/mL, and the detection concentration of compounds (1–23) was 50 μM. […] Then, 190 μL of ABTS working reagent was mixed with 10 μL sample and incubated at room temperature for 5 min. The absorbance was then measured using a microplate reader at 734 nm, and the scavenging activity was calculated according to Equation (2). The blank control group used DMSO to replace the sample. […] The analysis was performed in triplicates, 1.424, 0.0012 was a constant.

[3] = Ferric reducing antioxidant power (FRAP) assay; details: Trolox equivalent
Description: The FRAP assay was determined in accordance with the instructions for the FRAP kit. The total antioxidant activity values were estimated using the Trolox equivalent antioxidant capacity test. Initially, the detection concentration of methanolic extract and different fractions was 80 μg/mL, and the detection concentration of compounds (1–23) was 50 μM. Then, 190 μL of FRAP working reagent was mixed with 10 μL sample and incubated at room temperature for 20 min. The absorbance was then measured using a microplate reader at 593 nm, and the scavenging activity was calculated according to Equation (3). The blank control group used DMSO to replace the sample. […] The analysis was performed in triplicates, 0.8054, 0.0134 was a constant.

pBR322 DNA = assay: Prevention of AAPH-induced DNA oxidative damage; details: AAPH 20 mM; p < 0.0001 vs model
Description: The effects of T. grandis methanolic extract, different fractions and its compounds 15, 19 and 23 on the prevention of DNA oxidative damage were carried out using the method of Han et al.. Initially, 8 μL pBR322 DNA (50 μg/mL) in PBS (0.1 M, pH 6.8) was mixed with different concentrations of T. grandis fractions and its compounds (12 μL) and incubated in water at 37 °C for 30 min. Then, 5 μL AAPH (20 mM) was added to the mixture and the reaction continued for 60 min. The control group used the same volume of PBS (0.1 M, pH 6.8) to replace AAPH. The pre-treated samples were mixed with 5 × DNA loading buffer, and the mixture (8 μL) was taken for 1.0% agarose gel electrophoresis for 25 min. After electrophoresis, the gels were stained with ethidium bromide for 20 min. Finally, images were taken using a DNA gel imaging system (ChampChemi 610, Beijing sage creation Co., Ltd. Beijing, China).

[4] = methanolic extract and fractions at 80 μg/mL

| Structure (SMILES) | Inhibitory Rate (%) (α-glucosidase) | EC50 [1] [µM] | IC50 (α-glucosidase) [µM] | DPPH Assay SC50 ([1]; methanolic extract and fractions, ascorbic acid positive control) | ABTS Assay ([2]; compounds at 50 μM) | ABTS Assay [2, 4] | FRAP Assay ([3]; compounds at 50 μM) | FRAP Assay [3, 4] | concentration at which a protective effect against DNA oxidative damage begins (pBR322 DNA) [mM] |
| --- | --- | --- | --- | --- | --- | --- | --- | --- | --- |
| C[C@H]1O[C@H](O[C@H]2[C@H](O)[C@@H](O)[C@@H](O[C@H]3[C@H](O)[C@@H](O)C(O)O[C@@H]3CO)O[C@@H]2CO)[C@H](O)[C@@H](O)[C@@H]1N[C@H]1C=C(CO)[C@@H](O)[C@H](O)[C@H]1O (stereo partly drawn) [Acarbose, reference compound] | 99.53 ± 0.01 ^a % |  |  |  |  |  |  |  |  |
| O=C1O[C@H]([C@@H](O)CO)C(O)=C1O [Ascorbic acid, reference compound] |  | 13.45 ± 0.02 |  | 3.39 ± 0.98 ^e µg/mL | 0.85 ± 0.00 ^a mmol Trolox/L | 0.99 ± 0.00 ^a mmol Trolox/L | 1.01 ± 0.06 ^a mmol Trolox/L | 1.35 ± 0.02 ^b mmol Trolox/L |  |
| COc1ccc(-c2cc(=O)c3c(O)cc(O[C@@H]4O[C@H](C(=O)O)[C@@H](O)[C@H](O)[C@H]4O)cc3o2)cc1 [Compound 2, acacetin-7-O-β-glucuronide] | 31.35 ± 6.46 ^c % | 17.4 ± 1.08 | > 50 |  | 0.92 ± 0.01 ^a mmol Trolox/L |  | 0.03 ± 0.01 ^c mmol Trolox/L |  |  |
| O=c1cc(-c2ccc(O)cc2)oc2cc(O)cc(O)c12 [Compound 3, apigenin] | 29.06 ± 1.86 ^cd % | 5.22 ± 0.19 | > 50 |  | 0.05 ± 0.00 ^d mmol Trolox/L |  | 0.01 ± 0.01 ^c mmol Trolox/L |  |  |
| COC(=O)[C@H]1O[C@@H](Oc2cc(O)c3c(=O)cc(-c4ccc(O)cc4)oc3c2)[C@H](O)[C@@H](O)[C@@H]1O [Compound 4, apigenin-7-O-β-D-glucuronide methyl ester] | 68.54 ± 2.90 ^b % | 31.5 ± 1.75 | 14.2 ± 0.34 |  | 0.21 ± 0.01 ^b mmol Trolox/L |  | 0.02 ± 0.00 ^c mmol Trolox/L |  |  |
| COC(=O)[C@H]1O[C@@H](Oc2cc(-c3cc(=O)c4c(O)cc(O)cc4o3)ccc2O)[C@H](O)[C@@H](O)[C@@H]1O [Compound 5, vitegnoside] | 69.67 ± 2.20 ^b % | 9.92 ± 0.36 | 19.3 |  | 0.92 ± 0.00 ^a mmol Trolox/L |  | 1.02 ± 0.01 ^a mmol Trolox/L |  |  |
| O=c1cc(-c2ccc(O)c(O)c2)oc2cc(O)cc(O)c12 [Compound 6, luteolin] | 12.96 ± 2.08 ^d % | 22.1 ± 1.24 | > 50 |  | 0.99 ± 0.07 ^a mmol Trolox/L |  | 0.37 ± 0.05 ^b mmol Trolox/L |  |  |
| COc1cc(O)c2c(=O)c(O)c(-c3ccc(O)c(O)c3)oc2c1 [Compound 7, rhamnetin] | 85.13 ± 0.81 ^ab % | 16.9 ± 0.67 | 3.04 |  | 0.92 ± 0.07 ^a mmol Trolox/L |  | 0.33 ± 0.04 ^b mmol Trolox/L |  |  |
| O=c1c(O)c(-c2ccc(O)c(O)c2)oc2cc(O)cc(O)c12 [Compound 8, quercetin] | 1.27 ± 0.25 ^e % |  |  |  | 1.05 ± 0.01 ^a mmol Trolox/L |  | 0.01 ± 0.00 ^c mmol Trolox/L |  |  |
| Cc1ccc2c(c1O)C(=O)c1cccc(O)c1C2=O [Compound 9, isozyganein] | 3.13 ± 4.06 ^e % |  | > 50 |  |  |  |  |  |  |
| O=C1c2cc(CO)ccc2C(=O)c2c(O)cccc21 [Compound 10, 1-hydroxy-6-hydroxymethyl anthraquinone] | 1.77 ± 4.08 ^e % |  | > 50 |  | 0.13± 0.00 ^c mmol Trolox/L |  | 0.01 ± 0.01 ^c mmol Trolox/L |  |  |

Second part, led by results:

| Inhibitory Rate (%) (α-glucosidase) | EC50 [1] [µM] | IC50 (α-glucosidase) [µM] | Structure (SMILES) | DPPH Assay SC50 ([1]; methanolic extract and fractions, ascorbic acid positive control) | ABTS Assay ([2]; compounds at 50 μM) | ABTS Assay [2, 4] | FRAP Assay ([3]; compounds at 50 μM) | FRAP Assay [3, 4] | concentration at which a protective effect against DNA oxidative damage begins (pBR322 DNA) [mM] |
| --- | --- | --- | --- | --- | --- | --- | --- | --- | --- |
| 4.57 ± 4.37 ^e % |  | > 50 | O=C(O)C1OC(Oc2cc(-c3cc(=O)c4c(O)cc(O)cc4o3)ccc2O)C(O)C(O)C1O (stereo not drawn) [Compound 11, luteolin-3′-O-glucuronide] |  | 0.65 ± 0.00 ^b mmol Trolox/L |  | 0.01 ± 0.00 ^c mmol Trolox/L |  |  |
| 53.04 ± 0.36 ^bc % |  |  | COc1cc(C)cc2c1C(=O)c1c(O)cc(O)cc1C2=O [Compound 12, 1-O-methylemodin] |  | 0.03 ± 0.00 ^d mmol Trolox/L |  |  |  |  |
| 20.03 ± 2.44 ^c % | 25.8 ± 0.57 | > 50 | Cc1cc2c(cc1O)C(=O)c1ccccc1C2=O [Compound 14, 3-hydroxy-2-methyl-9,10-anthraquinone] |  | 0.09 ± 0.06 ^d mmol Trolox/L |  | 0.03 ± 0.00 ^c mmol Trolox/L |  |  |
| 12.53 ± 0.76 ^d % | 12.3 ± 0.53 | > 50 | O=C(O)c1c[nH]c2ccccc12 [Compound 16, 1H-indole-3-carboxylic acid] |  | 0.78 ± 0.01 ^a mmol Trolox/L |  | 0.28 ± 0.01 ^b mmol Trolox/L |  |  |
| 8.69 ± 1.94 ^de % |  | > 50 | COc1ccc(/C=C/C=O)cc1O [Compound 17, 3-hydroxy-4-methoxycinnamaladehyde] |  | 0.80 ± 0.01 ^a mmol Trolox/L |  |  |  |  |
| 57.40 ± 1.32 ^bc % | 6.17 ± 0.06 |  | COc1cc(C2Oc3c(OC)cc(CCCO)cc3C2CO)ccc1O (stereo not drawn) [Compound 19, rel-(2α,3β)-7-O-methylcedrusin] |  | 0.85 ± 0.03 ^a mmol Trolox/L |  | 0.25 ± 0.01 ^b mmol Trolox/L |  | 5.0 |
| 40.30 ± 0.76 ^c % | 8.66 ± 0.43 | > 50 | COc1cc(C(O)C(CO)Oc2c(OC)cc(/C=C/CO)cc2OC)cc(OC)c1O (stereo not drawn) [Compound 20, 7S,8R-syringylglycerol-8-O-4′-(synapyl alcohol) ether] |  | 0.67 ± 0.01 ^b mmol Trolox/L |  | 0.29 ± 0.00 ^b mmol Trolox/L |  |  |
| 20.58 ± 1.30 ^c % |  | > 50 | COc1cc(O)c2c(c1O)C(=O)c1cc(C)ccc1C2=O [Compound 22, austrocortirubin] |  | 0.32 ± 0.01 ^bc mmol Trolox/L |  |  |  |  |
